Measured values as given in patent US7282344B2, “Cation conducting GABAA receptors and their use” (Neurosearch A/S, priority 2001, dated 2007).

Target: T1, GABAA receptor α2 β3 γ2 (wt) (Homo sapiens, UniProt P18507+P28472+P47869)
T1 construct: expressed in transfected cells; host or cells: CHO-K1 (ATCC No. CCL61)
Assay: [^3H]-Muscimol binding, wild-type receptor
Conditions: wt α2 β3 γ2, membranes from CHO-K1 cells
Description: Binding studies were performed using standard methods. Membranes were prepared from CHO-K1 cells expressing recombinant GABAAR subunits. The cells were washed in PBS (Life Technologies), trypsinized, washed twice in tris-citrate buffer (50 mM, pH 7.1) and centrifuged for 10 minutes at 5,000 g.
Membranes were resuspended in membrane wash buffer [20 mM KH2PO4K2HPO4, pH 7.5, 50 mM KCl, 0.025% (w/v) NaN3, and various protease inhibitors (1 mM EDTA, 2 mM benzamidine chloride, 0.1 mM benzethonium chloride, 50 U/ml bacitracin, 0.3 mM phenylmethylsulfonyl fluoride, 10 mg/I ovomucoid trypsin inhibitor, 10 mg/l soybean trypsin inhibitor)] and centrifuged for 30 minutes at 177,000 g and 4° C. The pellet was resuspended in binding assay buffer (20 mM KH2PO4/K2HPO4, pH 7.5 and 100 mM KCl) to a protein concentration of 1 mg/ml and homogenized just before use. Binding was performed with 1, 3, 10, 30, 100 or 300 nM of [^3H]-muscimol (20 Ci/mmol, Dupont-New England Nuclear) in triplicate in a final volume of 250 μl containing 200 μg of protein, and non-specific binding was determined in the presence of 1 mM GABA (Sigma). Samples were incubated at 4° C. for 30 minutes and labelled membranes were harvested on a Brandel cell harvester using GF/B filters (Whatman). The filters were washed with 3×4 ml binding assay buffer and the amount of radioactivity was determined by liquid scintillation counting. […]

T1 sequence (P47869 29-451): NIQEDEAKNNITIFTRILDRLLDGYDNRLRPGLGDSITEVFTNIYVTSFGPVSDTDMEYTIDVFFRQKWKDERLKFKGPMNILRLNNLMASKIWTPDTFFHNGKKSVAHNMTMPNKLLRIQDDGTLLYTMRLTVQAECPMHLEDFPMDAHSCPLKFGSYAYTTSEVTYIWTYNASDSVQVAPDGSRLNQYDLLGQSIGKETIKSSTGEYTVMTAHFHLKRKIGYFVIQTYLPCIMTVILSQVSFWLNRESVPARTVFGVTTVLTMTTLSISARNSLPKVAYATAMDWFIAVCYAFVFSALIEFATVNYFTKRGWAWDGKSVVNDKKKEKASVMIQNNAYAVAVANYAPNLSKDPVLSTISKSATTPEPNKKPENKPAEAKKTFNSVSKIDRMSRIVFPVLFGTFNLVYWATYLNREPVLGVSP
T1 sequence (P28472 26-473): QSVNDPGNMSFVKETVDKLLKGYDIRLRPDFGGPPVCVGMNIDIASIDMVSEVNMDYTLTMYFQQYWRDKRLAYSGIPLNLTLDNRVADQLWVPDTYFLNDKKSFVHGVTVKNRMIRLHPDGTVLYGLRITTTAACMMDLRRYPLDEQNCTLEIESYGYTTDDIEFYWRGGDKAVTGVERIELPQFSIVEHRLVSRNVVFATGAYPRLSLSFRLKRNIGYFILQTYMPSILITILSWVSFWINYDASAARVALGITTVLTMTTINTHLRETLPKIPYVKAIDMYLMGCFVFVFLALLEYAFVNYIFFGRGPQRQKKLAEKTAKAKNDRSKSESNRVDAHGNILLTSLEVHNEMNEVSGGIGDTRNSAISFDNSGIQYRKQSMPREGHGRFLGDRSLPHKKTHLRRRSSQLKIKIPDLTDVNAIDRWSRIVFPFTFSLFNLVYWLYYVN
T1 sequence (P18507 40-475): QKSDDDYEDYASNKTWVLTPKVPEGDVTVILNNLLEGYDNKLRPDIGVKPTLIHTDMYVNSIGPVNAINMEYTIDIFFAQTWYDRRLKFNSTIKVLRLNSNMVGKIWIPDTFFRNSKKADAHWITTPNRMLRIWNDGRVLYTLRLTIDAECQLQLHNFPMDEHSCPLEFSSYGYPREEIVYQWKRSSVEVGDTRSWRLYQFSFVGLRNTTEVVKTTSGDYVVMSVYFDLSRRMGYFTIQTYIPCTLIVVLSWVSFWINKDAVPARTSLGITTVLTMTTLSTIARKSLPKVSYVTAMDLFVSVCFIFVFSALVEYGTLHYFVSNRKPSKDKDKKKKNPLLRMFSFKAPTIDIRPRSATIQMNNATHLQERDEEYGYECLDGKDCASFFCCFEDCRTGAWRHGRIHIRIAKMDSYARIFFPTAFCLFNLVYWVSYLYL

With `NCc1cc(=O)[nH]o1` [[^3H] Muscimol, Muscimol] the Kd was 54.7 ± 14.7 nM.
